What was measured:
[1] = tested on: rabbit serum obtained by immunizing a rabbit with the SARS-CoV strain Frankfurt 1; assay type: binding; design: Binding of a rabbit serum to linear peptides / Binding of a rabbit serum to looped peptides / Rabbit serum linear peptides / Rabbit serum looped peptides / Binding of a rabbit serum to linear peptides of protein N of SARS-CoV Urbani (Rabbit serum linear peptides) / Binding of a rabbit serum to looped/cyclic peptides of protein N of SARS-CoV Urbani (Rabbit serum looped peptides): unit not given here
[2] = tested on: control sera (pooled serum of ten healthy LUMC hospital workers; commercial negative donor pooled serum from the Dutch bloodbank); assay type: binding, human; design: Binding of Control serum LUMC to linear peptides / Binding of Control serum Blood-bank to linear peptides / Binding of Control serum LUMC to looped peptides / Binding of Control Serum Blood-Bank to Looped peptides / Binding of Control serum LUMC to linear peptides of the protein M of SARS-CoV Urbani / Binding of Control serum Blood-bank to linear peptides of the protein M of SARS-CoV Urbani / Binding of Control serum LUMC to looped peptides of the protein M of SARS-CoV Urbani / Binding of Control Serum Blood-Bank to Looped peptides of the protein M of SARS-CoV Urbani: unit not given here
[3] = tested on: antibodies in sera from SARS patients (sera 1a, 1b, 2, 6, 37, 62, London, SARS-yellow, SARS-green); assay type: binding, human; design: Binding of serum 6 to linear peptides of protein X1 of SARS-CoV Urbani / Binding of serum 37 to linear peptides of protein X1 of SARS-CoV Urbani / Binding of serum 6 to looped/cyclic peptide (PEPSCAN-ELISA) / Binding of serum 37 to looped/cyclic peptide (PEPSCAN-ELISA) / Binding of serum 37 to looped/cyclic peptides of protein X1 of SARS-CoV Urbani / Binding of serum 6 to linear peptides of protein X2 / Binding of serum 37 to linear peptides of protein X2 / Binding of serum 37 to looped/cyclic peptides of protein X2 of SARS-CoV Urbani / Binding of serum 6 to linear peptides of protein M of SARS-CoV Urbani / Binding of serum 37 to linear peptides of protein M of SARS-CoV Urbani / Binding of serum 6 to looped/cyclic peptides of protein M of SARS-CoV Urbani / Binding of serum 37 to looped/cyclic peptides of protein M of SARS-CoV Urbani / Binding of serum 6 to linear peptides of protein X3 of SARS-CoV Urbani / Binding of serum 37 to linear peptides of protein X3 of SARS-CoV Urbani / Binding of serum 37 to looped/cyclic peptides of protein X3 of SARS-CoV Urbani / Binding of serum 6 to linear peptides of protein X4 of SARS-CoV Urbani / Binding of serum 37 to linear peptides of protein X4 of SARS-CoV Urbani / Binding of serum 37 to looped/cyclic peptides of protein X4 of SARS-CoV Urbani / Binding of serum 6 to linear peptides of protein X5 of SARS-CoV Urbani / Binding of serum 37 to linear peptides of protein X5 of SARS-CoV Urbani / Binding of serum 37 to looped/cyclic peptides of protein X5 of SARS-CoV Urbani / Binding of serum 6 to linear peptides of protein N of SARS-CoV Urbani / Binding of serum 37 to linear peptides of protein N of SARS-CoV Urbani / Binding of serum 6 to linear peptide (PEPSCAN-ELISA) / Binding of serum 1a to looped/cyclic peptides of protein N of SARS-CoV Urbani / Binding of serum 1b to looped/cyclic peptides of protein N of SARS-CoV Urbani / Binding of serum 2 to looped/cyclic peptides of protein N of SARS-CoV Urbani / Binding of serum 6 to looped/cyclic peptides of protein N of SARS-CoV Urbani / Binding of serum 37 to looped/cyclic peptides of protein N of SARS-CoV Urbani / Binding of serum 62 to looped/cyclic peptides of protein N of SARS-CoV Urbani / Binding of serum London to looped/cyclic peptides of protein N of SARS-CoV Urbani / Binding of serum SARS-green to looped/cyclic peptides of protein N of SARS-CoV Urbani: unit not given here
[4] = tested on: recombinant human anti-SARS-CoV antibody 03-018; assay type: binding; design: Binding of antibody 03-018 to linear peptides of the N protein of SARS-CoV Urbani / Binding of antibody 03-018 to looped/cyclic peptides of the N protein of SARS-CoV Urbani: unit not given here

Sequence: LPYGANKEGIVWVAT
- Binding of a rabbit serum to linear peptides of protein N of SARS-CoV Urbani (Rabbit serum linear peptides) [1]: 0.2
- Binding of a rabbit serum to looped/cyclic peptides of protein N of SARS-CoV Urbani (Rabbit serum looped peptides) [1]: 0.6
- Binding of Control Serum Blood-Bank to Looped peptides [2]: 0.5
- Binding of Control serum Blood-bank to linear peptides [2]: 0.7
- Binding of Control serum LUMC to linear peptides [2]: 0.6
- Binding of Control serum LUMC to looped peptides [2]: 0.6
- Binding of serum 1a to linear peptides of protein N of SARS-CoV Urbani [3]: 0.2
- Binding of serum 1a to looped/cyclic peptides of protein N of SARS-CoV Urbani [3]: 0.5
- Binding of serum 1b to linear peptides of protein N of SARS-CoV Urbani [3]: 0.2
- Binding of serum 1b to looped/cyclic peptides of protein N of SARS-CoV Urbani [3]: 0.3
- Binding of serum 2 to linear peptides of protein N of SARS-CoV Urbani [3]: 0.3
- Binding of serum 2 to looped/cyclic peptides of protein N of SARS-CoV Urbani [3]: 0.6
- Binding of serum 6 to linear peptides of protein N of SARS-CoV Urbani [3]: 0.2
- Binding of serum 6 to looped/cyclic peptides of protein N of SARS-CoV Urbani [3]: 0.4
- Binding of serum 37 to linear peptides of protein N of SARS-CoV Urbani [3]: 0.7
- Binding of serum 37 to looped/cyclic peptides of protein N of SARS-CoV Urbani [3]: 0.9
- Binding of serum 62 to linear peptides of protein N of SARS-CoV Urbani [3]: 0.7
- Binding of serum 62 to looped/cyclic peptides of protein N of SARS-CoV Urbani [3]: 0.8
- Binding of serum London to linear peptides of protein N of SARS-CoV Urbani [3]: 0.5
- Binding of serum London to looped/cyclic peptides of protein N of SARS-CoV Urbani [3]: 0.5
- Binding of serum SARS-green to linear peptides of protein N of SARS-CoV Urbani [3]: 0.3
- Binding of serum SARS-green to looped/cyclic peptides of protein N of SARS-CoV Urbani [3]: 0.4
- Binding of serum SARS-yellow to linear peptides of protein N of SARS-CoV Urbani [3]: 0.6
- Binding of serum SARS-yellow to looped/cyclic peptides of protein N of SARS-CoV Urbani [3]: 0.4
- Binding of antibody 03-018 to linear peptides of the N protein of SARS-CoV Urbani [4]: 0.1
- Binding of antibody 03-018 to looped/cyclic peptides of the N protein of SARS-CoV Urbani [4]: 0.2

Sequence: VPINTNSGPDDQIGY
- Binding of a rabbit serum to linear peptides of protein N of SARS-CoV Urbani (Rabbit serum linear peptides) [1]: 0.1
- Binding of a rabbit serum to looped/cyclic peptides of protein N of SARS-CoV Urbani (Rabbit serum looped peptides) [1]: 0.3
- Binding of Control Serum Blood-Bank to Looped peptides [2]: 0.8
- Binding of Control serum Blood-bank to linear peptides [2]: 0.7
- Binding of Control serum LUMC to linear peptides [2]: 0.8
- Binding of Control serum LUMC to looped peptides [2]: 0.7
- Binding of serum 1a to linear peptides of protein N of SARS-CoV Urbani [3]: 0.3
- Binding of serum 1a to looped/cyclic peptides of protein N of SARS-CoV Urbani [3]: 0.5
- Binding of serum 1b to linear peptides of protein N of SARS-CoV Urbani [3]: 0.2
- Binding of serum 1b to looped/cyclic peptides of protein N of SARS-CoV Urbani [3]: 0.4
- Binding of serum 2 to linear peptides of protein N of SARS-CoV Urbani [3]: 0.2
- Binding of serum 2 to looped/cyclic peptides of protein N of SARS-CoV Urbani [3]: 0.4
- Binding of serum 6 to linear peptides of protein N of SARS-CoV Urbani [3]: 0.2
- Binding of serum 6 to looped/cyclic peptides of protein N of SARS-CoV Urbani [3]: 0.2
- Binding of serum 37 to linear peptides of protein N of SARS-CoV Urbani [3]: 0.8
- Binding of serum 37 to looped/cyclic peptides of protein N of SARS-CoV Urbani [3]: 0.9
- Binding of serum 62 to linear peptides of protein N of SARS-CoV Urbani [3]: 0.7
- Binding of serum 62 to looped/cyclic peptides of protein N of SARS-CoV Urbani [3]: 0.7
- Binding of serum London to linear peptides of protein N of SARS-CoV Urbani [3]: 0.4
- Binding of serum London to looped/cyclic peptides of protein N of SARS-CoV Urbani [3]: 0.5
- Binding of serum SARS-green to linear peptides of protein N of SARS-CoV Urbani [3]: 0.4
- Binding of serum SARS-green to looped/cyclic peptides of protein N of SARS-CoV Urbani [3]: 1.1
- Binding of serum SARS-yellow to linear peptides of protein N of SARS-CoV Urbani [3]: 0.5
- Binding of serum SARS-yellow to looped/cyclic peptides of protein N of SARS-CoV Urbani [3]: 0.7
- Binding of antibody 03-018 to linear peptides of the N protein of SARS-CoV Urbani [4]: 0.1
- Binding of antibody 03-018 to looped/cyclic peptides of the N protein of SARS-CoV Urbani [4]: 0.2

Sequence: KVSGKGQQQQGQTVT
- Binding of a rabbit serum to linear peptides of protein N of SARS-CoV Urbani (Rabbit serum linear peptides) [1]: 0.2
- Binding of a rabbit serum to looped/cyclic peptides of protein N of SARS-CoV Urbani (Rabbit serum looped peptides) [1]: 0.4
- Binding of Control Serum Blood-Bank to Looped peptides [2]: 0.6
- Binding of Control serum Blood-bank to linear peptides [2]: 0.8
- Binding of Control serum LUMC to linear peptides [2]: 0.7
- Binding of Control serum LUMC to looped peptides [2]: 0.5
- Binding of serum 1a to linear peptide (PEPSCAN-ELISA) [3]: 0.3
- Binding of serum 1a to looped/cyclic peptides of protein N of SARS-CoV Urbani [3]: 0.3
- Binding of serum 1b to linear peptide (PEPSCAN-ELISA) [3]: 0.1
- Binding of serum 1b to looped/cyclic peptides of protein N of SARS-CoV Urbani [3]: 0.2
- Binding of serum 2 to linear peptide (PEPSCAN-ELISA) [3]: 0.3
- Binding of serum 2 to looped/cyclic peptides of protein N of SARS-CoV Urbani [3]: 0.5
- Binding of serum 6 to linear peptide (PEPSCAN-ELISA) [3]: 0.2
- Binding of serum 6 to looped/cyclic peptides of protein N of SARS-CoV Urbani [3]: 0.3
- Binding of serum 37 to linear peptide (PEPSCAN-ELISA) [3]: 0.6
- Binding of serum 37 to looped/cyclic peptides of protein N of SARS-CoV Urbani [3]: 0.4
- Binding of serum 62 to linear peptide (PEPSCAN-ELISA) [3]: 0.6
- Binding of serum 62 to looped/cyclic peptides of protein N of SARS-CoV Urbani [3]: 0.4
- Binding of serum London to linear peptide (PEPSCAN-ELISA) [3]: 0.5
- Binding of serum London to looped/cyclic peptides of protein N of SARS-CoV Urbani [3]: 0.6
- Binding of serum SARS-green to linear peptide (PEPSCAN-ELISA) [3]: 0.6
- Binding of serum SARS-green to looped/cyclic peptides of protein N of SARS-CoV Urbani [3]: 0.5
- Binding of serum SARS-yellow to linear peptide (PEPSCAN-ELISA) [3]: 0.6
- Binding of serum SARS-yellow to looped/cyclic peptides of protein N of SARS-CoV Urbani [3]: 0.3
- Binding of antibody 03-018 to linear peptides of the N protein of SARS-CoV Urbani [4]: 0.1
- Binding of antibody 03-018 to looped/cyclic peptides of the N protein of SARS-CoV Urbani [4]: 0.2

Sequence: TDNNQNGGRNGARPK
- Binding of a rabbit serum to linear peptides of protein N of SARS-CoV Urbani (Rabbit serum linear peptides) [1]: 0.2
- Binding of a rabbit serum to looped/cyclic peptides of protein N of SARS-CoV Urbani (Rabbit serum looped peptides) [1]: 0.4
- Binding of Control Serum Blood-Bank to Looped peptides [2]: 0.5
- Binding of Control serum Blood-bank to linear peptides [2]: 0.9
- Binding of Control serum LUMC to linear peptides [2]: 0.8
- Binding of Control serum LUMC to looped peptides [2]: 0.5
- Binding of serum 1a to linear peptides of protein N of SARS-CoV Urbani [3]: 0.3
- Binding of serum 1a to looped/cyclic peptides of protein N of SARS-CoV Urbani [3]: 0.2
- Binding of serum 1b to linear peptides of protein N of SARS-CoV Urbani [3]: 0.2
- Binding of serum 1b to looped/cyclic peptides of protein N of SARS-CoV Urbani [3]: 0.1
- Binding of serum 2 to linear peptides of protein N of SARS-CoV Urbani [3]: 0.4
- Binding of serum 2 to looped/cyclic peptides of protein N of SARS-CoV Urbani [3]: 0.2
- Binding of serum 6 to linear peptides of protein N of SARS-CoV Urbani [3]: 0.2
- Binding of serum 6 to looped/cyclic peptides of protein N of SARS-CoV Urbani [3]: 0.2
- Binding of serum 37 to linear peptides of protein N of SARS-CoV Urbani [3]: 0.8
- Binding of serum 37 to looped/cyclic peptides of protein N of SARS-CoV Urbani [3]: 0.4
- Binding of serum 62 to linear peptides of protein N of SARS-CoV Urbani [3]: 1.0
- Binding of serum 62 to looped/cyclic peptides of protein N of SARS-CoV Urbani [3]: 0.2
- Binding of serum London to linear peptides of protein N of SARS-CoV Urbani [3]: 0.6
- Binding of serum London to looped/cyclic peptides of protein N of SARS-CoV Urbani [3]: 0.3
- Binding of serum SARS-green to linear peptides of protein N of SARS-CoV Urbani [3]: 0.8
- Binding of serum SARS-green to looped/cyclic peptides of protein N of SARS-CoV Urbani [3]: 0.1
- Binding of serum SARS-yellow to linear peptides of protein N of SARS-CoV Urbani [3]: 0.7
- Binding of serum SARS-yellow to looped/cyclic peptides of protein N of SARS-CoV Urbani [3]: 0.3
- Binding of antibody 03-018 to linear peptides of the N protein of SARS-CoV Urbani [4]: 0.2
- Binding of antibody 03-018 to looped/cyclic peptides of the N protein of SARS-CoV Urbani [4]: 0.2

Source: patent US20070128217A1 (priority 2003, published 2007)
